# Data reported in ChEMBL document CHEMBL1135722, “Cysteine derivatives as inhibitors for carboxypeptidase A: synthesis and structure-activity relationships” (J Med Chem, 2002).
# Target: T1, Carboxypeptidase A1 (Bos taurus, UniProt P00730)
# T1 sequence (P00730 whole entry): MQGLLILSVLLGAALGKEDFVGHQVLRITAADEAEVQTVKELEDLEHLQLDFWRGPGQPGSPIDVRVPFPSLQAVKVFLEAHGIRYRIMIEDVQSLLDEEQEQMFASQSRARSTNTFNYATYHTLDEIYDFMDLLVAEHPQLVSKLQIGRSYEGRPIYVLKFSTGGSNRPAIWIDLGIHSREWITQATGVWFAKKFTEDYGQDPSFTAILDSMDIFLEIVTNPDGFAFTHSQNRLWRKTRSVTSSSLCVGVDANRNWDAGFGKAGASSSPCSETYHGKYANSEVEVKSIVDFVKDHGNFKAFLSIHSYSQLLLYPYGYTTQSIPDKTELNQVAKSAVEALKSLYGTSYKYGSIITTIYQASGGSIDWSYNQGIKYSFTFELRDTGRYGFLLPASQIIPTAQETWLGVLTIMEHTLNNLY
# Test: Inhibition of bovine carboxypeptidase A (CPA) using hippuryl-L-phenylalanine (Hipp-L-Phe) as a substrate.
row,SMILES,Ki [nM]
1,CCNC(CS)C(=O)O (stereo not given),1400
2,CCCNC(CS)C(=O)O (stereo not given),5600
3,O=C(O)C(CS)NCC1CCCCC1 (stereo not given),9400
4,N[C@H](CS)C(=O)O,2300
5,CC(C)CNC(CS)C(=O)O (stereo not given),7500
6,O=C(O)[C@@H](CS)NC1CCCCC1,2900
7,O=C(O)C(CS)NC1CCCCC1 (stereo not given),9600
8,O=C(O)[C@H](CS)NC1CCCCC1,7900
9,COc1ccc(CNC(CS)C(=O)O)cc1 (stereo not given),850
10,O=C(O)C(CS)NCc1cccc2ccccc12 (stereo not given),810
11,CC(C)N[C@H](CS)C(=O)O,560
12,CC(C)CC(CS)C(=O)O (stereo not given),160
13,CNC(CS)C(=O)O (stereo not given),2400
14,CC(C)NC(CS)C(=O)O (stereo not given),1100
15,CC(C)N[C@@H](CS)C(=O)O,2900
16,O=C(O)C(CS)NCc1ccc2ccccc2c1 (stereo not given),> 500000
17,O=C(O)C(CS)Nc1ccccc1 (stereo not given),5500
18,N[C@@H](CS)C(=O)O [CYSTEINE],350000

# Results, then the compound that gave them:
row,Ki [nM],SMILES
1,270,O=C(O)C(CS)NCc1ccccc1 (stereo not given)
2,33000,O=C(O)[C@H](CS)NCc1ccccc1
3,55,O=C(O)[C@@H](CS)NCCc1ccccc1
4,1350,O=C(O)C(CS)CCCc1ccccc1 (stereo not given)
5,2100,O=C(O)C(CS)CCc1ccccc1 (stereo not given)
6,610,O=C(O)[C@H](CS)NCCc1ccccc1
7,1300,O=C(O)C(CS)NCCCc1ccccc1 (stereo not given)
8,1300,O=C(O)C(CS)CCCCc1ccccc1 (stereo not given)
9,190,O=C(O)[C@@H](CS)NCc1ccccc1
10,65,O=C(O)C(CS)NCCc1ccccc1 (stereo not given)
11,12000,CN(Cc1ccccc1)C(CS)C(=O)O (stereo not given)
12,10,O=C(O)C(CS)Cc1ccccc1 (stereo not given)
